Source: patent US12606543B2, “Indole derivatives as serotonergic agents useful for the treatment of disorders related thereto” (priority 2023, dated 2026)

Assays:
[1] = Liver microsomes stability, rat; type: in vitro ADME; settings: rat liver microsomes
Experimental: (§1) The objective of this study was to estimate in vitro metabolic stability of exemplary compounds of Formula (I) or a pharmaceutically acceptable salt, solvate, and/or prodrug thereof in pooled human, male rat, and male mouse liver microsomes. The concentrations of compounds in reaction systems were evaluated by LC-MS/MS for estimating the stability in pooled human, male rat, and male mouse liver microsomes. The in vitro intrinsic clearances of test compounds were determined as well.
(§2) A master solution in the “Incubation Plate” containing phosphate buffer, ultra-pure H2O, MgCl2 solution and liver microsomes was made according to Table 33. The mixture was pre-warmed at 37° C. water bath for 5 minutes.
(§3) 40 μL of 10 mM nicotinamide adenine dinucleotide phosphate (NADPH) solution was added to each well. The final concentration of NADPH was 1 mM. The negative control samples were prepared by replacing NADPH with 40 μL of ultra-pure H2O. Samples were prepared in duplicate. Negative controls were prepared in singlet.
(§4) The reaction was started with the addition of 4 μL of 200 μM exemplary test compounds of the disclosure or control compounds to each master solution to get the final concentration of 2 μM. This study was performed in duplicate.
(§5) Aliquots of 50 μL were taken from the reaction solution at 0, 15, 30, 45, and 60 minutes. The reaction solutions were stopped by the addition of 4 volumes of cold methanol with IS (100 nM alprazolam, 200 nM imipramine, 200 nM labetalol, and 2 μM ketoprofen). Samples were centrifuged at 3,220 g for 40 minutes. Aliquot of 90 μL of the supernatant was mixed with 90 μL of ultra-pure H2O and then was used for LC-MS/MS analysis.
(§6) LC/MS analysis was performed for all samples from this study using a Shimadzu liquid chromatograph separation system equipped with degasser DGU-20A5R; solvent delivery unit LC-30AD; system controller SIL-30AC; column oven CTO-30A; CTC Analytics HTC PAL System. Mass spectrometric analysis was performed using a Triple Quad™ 5500 instrument.
(§7) All calculations were carried out using Microsoft Excel. Peak area ratios of test compound to internal standard (listed in the below table) were determined from extracted ion chromatograms.
(§8) All calculations were carried out using Microsoft Excel. Peak areas were determined from extracted ion chromatograms. The slope value, k, was determined by linear regression of the natural logarithm of the remaining percentage of the parent drug vs. incubation time curve.
(§9) The in vitro half-life (in vitro t1/2) was determined from the slope value:
(§10) Conversion of the in vitro t1/2 (min) into the in vitro intrinsic clearance (in vitro CLint, in μL/min/mg proteins) was done using the following equation (mean of duplicate determinations): […]
as §1, with “solvate” for “solvate,”, “rat” for “rat,”
(§11) A master solution in the “Incubation Plate” containing phosphate buffer, ultra-pure H2O, MgCl2 solution and liver microsomes was made according to Table 67. The mixture was pre-warmed at 37° C. water bath for 5 minutes.
(§12) 40 μL of 10 mM NADPH solution was added to each well. The final concentration of NADPH was 1 mM. The negative control samples were prepared by replacing NADPH with 40 μL of ultra-pure H2O. Samples were prepared in duplicate. Negative controls were prepared in singlet
Aliquots of 50 μL were taken from the reaction solution at 0, 15, 30, 45 and 60 minutes. The reaction solutions were stopped by the addition of 4 volumes of cold methanol with IS (100 nM alprazolam, 200 nM imipramine, 200 nM labetalol and 2 μM ketoprofen). […]

[2] = Plasma protein binding by equilibrium dialysis, dog; type: in vitro ADME; settings: dog plasma, 6 hours
Experimental: The final concentration of compound was 1 μM. The final concentration of DMSO was 0.5%. Ketoconazole was used as positive control in the assay.
The assay was performed in duplicate.
All calculations were carried out using Microsoft Excel. […] The percentages of bound compound were calculated as follows: […]
Ketoconazole was used as positive control in the assay.

[3] = Liver microsomes stability, human; type: in vitro ADME; settings: human liver microsomes
Experimental: as §1, §2, §3, §4, §5, §6, §7, §8, §9, §10
as §1, with “solvate” for “solvate,”, “rat” for “rat,”
as §11, §12
Aliquots of 50 μL were taken from the reaction solution at 0, 15, 30, 45 and 60 minutes. The reaction solutions were stopped by the addition of 4 volumes of cold methanol with IS (100 nM alprazolam, 200 nM imipramine, 200 nM labetalol and 2 μM ketoprofen).

human 5-HT2B receptor = human 5-HT2B receptor (Homo sapiens, UniProt P41595); test: Human 5-HT2B positive allosteric modulator (PAM) assay; type: cell-based; design: expressed in transfected cells; host or cells: HEK293; settings: HEK293 cells
Experimental: Compound potency (EC50) and efficacy (Max response) against the human 5-HT2B receptor in stably transfected HEK293 cells were determined in a GPCR cell-based assay.
(§13) For Positive Allosteric Modulator determination, cells were pre-incubated with sample followed by EC20 addition. Intermediate dilution of sample stocks were performed to generate 5× samples in assay buffer. 5 μL of 5× samples were added to cells and incubated at 37° C. for 10 mins. 5 μL of agonist at 6×EC20 concentration was added and cells were incubated at 37° C. for 120 mins. Final assay vehicle concentration was 1%. The results are expressed as percent efficacy relative to the maximum response of the control ligand (serotonin) in Table 14.
Compound potency (EC50) and efficacy (Max response) against the human 5-HT2B receptor in stably transfected HEK293 cells was determined in a GPCR cell-based assay.
as §13, with “sample stocks was performed to” for “sample stocks were performed to”, “added and the cells were” for “added and cells were”, “120 mins. The final assay vehicle” for “120 mins. Final assay vehicle”, “in Table 64.” for “in Table 14.”

[4] = male, 2 μM compound, 0.5 mg/mL microsomes
[5] = 2 μM compound, 0.5 mg/mL microsomes

human 5-HT2B receptor, sequence (P41595 whole entry): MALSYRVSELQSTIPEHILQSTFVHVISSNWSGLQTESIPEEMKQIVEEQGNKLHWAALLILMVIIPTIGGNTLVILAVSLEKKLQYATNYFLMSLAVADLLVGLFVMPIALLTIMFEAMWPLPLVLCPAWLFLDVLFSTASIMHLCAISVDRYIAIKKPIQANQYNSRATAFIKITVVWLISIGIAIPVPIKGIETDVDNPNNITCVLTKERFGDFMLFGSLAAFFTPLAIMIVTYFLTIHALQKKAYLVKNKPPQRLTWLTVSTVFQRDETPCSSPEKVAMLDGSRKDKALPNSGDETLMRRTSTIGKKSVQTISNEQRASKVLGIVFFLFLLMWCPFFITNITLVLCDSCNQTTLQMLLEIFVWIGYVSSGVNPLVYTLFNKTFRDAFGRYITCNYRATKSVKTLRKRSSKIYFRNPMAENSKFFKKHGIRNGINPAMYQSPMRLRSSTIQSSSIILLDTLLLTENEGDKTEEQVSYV

COCCN1CCC[C@@H]1Cc1c[nH]c2ccc(OC)cc12 [(R) I-98, (R)-5-Methoxy-3-((1-(2-methoxyethyl)pyrrolidin-2-yl)methyl)-1H-indole]
half-life at 2 μM [1, 4]: 10 min | microsomal CLint at 2 μM [1, 4]: 138 µL/min/mg | CLint scaled at 2 μM ([1]; male, read-out: Scaled-up CLint): 248 mL/min/kg | Predicted hepatic CL [1]: 45.13 mL/min/kg | Remaining Percentage ([1]; With Cofactors, 30 min): 100.00% | Remaining Percentage ([1]; With Cofactors, 60 min): 14.43% | Remaining Percentage ([1]; Without Cofactors, 30 min): 100.00% | Remaining Percentage ([1]; Without Cofactors, 60 min): 103.23% | recovery at 6 h, 1 µM ([2]; Beagle, dog, equilibrium dialysis, 37° C.): 104% | fraction unbound at 6 h, 1 μM ([2]; Beagle, equilibrium dialysis, 37° C., read-out: % Bound (converted)): 0.157 | % Remaining @ 6 hours [2]: 110.92% | Predicted hepatic CL [3]: 11.72 mL/min/kg | half-life at 2 μM [3, 5]: 64.3 min | microsomal CLint at 2 μM [3, 5]: 21.6 µL/min/mg | Remaining Percentage ([3]; With Cofactors, 30 min): 100.00% | Remaining Percentage ([3]; With Cofactors, 60 min): 67.04% | Remaining Percentage ([3]; Without Cofactors, 30 min): 100.00% | Remaining Percentage ([3]; Without Cofactors, 60 min): 98.21% | CLint scaled at 2 μM ([3]; read-out: Scaled-up CLint): 27 mL/min/kg | Emax (% of serotonin) (human 5-HT2B receptor; PAM mode, agonist at EC20, relative to maximum response of serotonin): 0 % of serotonin | EC50 (human 5-HT2B receptor; PAM mode: pre-incubation with sample, then agonist at EC20, read-out: EC50): > 10 µM
